The subject of one assay is SHBG. Briefly: Serum SHBG level prior to patch application in the pharmacokinetic study. The conditions noted are these: mean±SEM, surgically menopausal women on the estrogen. It counts as in vivo, human. The source says: The structure and proposed functions of SHBG have been described and characterized. See, for example, Rosner et al., Sex Hormone-Binding Globulin Mediates Steroid Hormone Signal Transduction at the Plasma Membrane, J. Steroid Biochem. Mol. Biol. Vol. 69:481-5 (1999); Petra, P. H. The plasma Sex Steroid Binding Protein (SBP or SHBG). A Critical Review of Recent Developments on the Structure, Molecular Biology, and Function, J. Steroid Biochem. Mol. Biol., Vol. 40:735-53 (1991). A variety of methods have been used to quantify the serum concentrations of SHBG, including ammonium sulfate precipitation, gel filtration, equilibrium dialysis, dextran-coated charcoal, and radioimmunoassay. See, for example, Khan et al., Radioimmunoassay for Human Testosterone-Estradiol-Binding Globulin, J. Clinical Endocrinology and Metabolism, Vol. 54:705-710 (1982). […] Serum SHBG levels are known to be elevated in women treated with oral estrogens, estrogen-containing oral contraceptives, clomiphene, tamoxifen, raloxifene, phenytoin, and sodium valproate, as well as in women who are pregnant, hyperthyroid, have chronic liver disease and HIV-infection. See for example, Bond et al., Sex Hormone Binding Globulin in Clinical Perspective, Acta. Obstet. Gynecol. […]
In turn, `C[C@]12CC[C@@H]3c4ccc(O)cc4CC[C@H]3[C@@H]1CC[C@@H]2O` [estradiol] registered an SHBG of 90.8 ± 12.9 nmol/L.

The next assay addresses T1, sex hormone binding globulin (SHBG) (Homo sapiens, UniProt P04278).
T1 sequence (P04278 30-402): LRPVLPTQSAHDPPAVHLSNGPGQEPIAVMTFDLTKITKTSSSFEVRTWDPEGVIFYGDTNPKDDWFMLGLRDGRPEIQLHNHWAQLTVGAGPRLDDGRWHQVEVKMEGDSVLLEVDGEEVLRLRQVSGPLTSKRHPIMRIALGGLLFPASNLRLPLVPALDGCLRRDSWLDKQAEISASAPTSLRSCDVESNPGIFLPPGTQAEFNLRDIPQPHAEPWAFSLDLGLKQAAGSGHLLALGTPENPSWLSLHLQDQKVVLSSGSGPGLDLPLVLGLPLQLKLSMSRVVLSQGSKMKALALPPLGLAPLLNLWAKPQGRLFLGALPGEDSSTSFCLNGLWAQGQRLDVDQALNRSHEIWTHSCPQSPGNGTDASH
Assay: not given
The conditions noted are these: adapted from Dunn et al. 1981; human plasma; cited from earlier work.
For the compound `C[C@]12CC[C@@H]3c4ccc(O)cc4CC[C@H]3[C@@H]1C[C@@H](O)[C@@H]2O` [estriol], the “K (binding affinity constant for SHBG)” value is given as 4.3 10^6 Liter/mole.
In the case of `C[C@]12CC[C@@H](O)C[C@@H]1CC[C@@H]1[C@@H]2CC[C@]2(C)C(=O)CC[C@@H]12` [androsterone], the “K (binding affinity constant for SHBG)” value is listed as 14 10^6 Liter/mole.
`C[C@]12CCC(=O)C[C@@H]1CC[C@@H]1[C@@H]2CC[C@]2(C)[C@@H](O)CC[C@@H]12` [dihydrotestosterone]: the “K (binding affinity constant for SHBG)” value was 5500 10^6 Liter/mole.
`CC(=O)[C@@]1(O)CC[C@H]2[C@@H]3CCC4=CC(=O)CC[C@]4(C)[C@H]3CC[C@@]21C` [17-hydroxyprogesterone]: the “K (binding affinity constant for SHBG)” value is listed as 9.9 10^6 Liter/mole.
In the case of `C[C@]12CCC(O)C[C@@H]1CC[C@@H]1[C@@H]2CC[C@]2(C)[C@@H](O)CC[C@@H]12` (some centres unmarked) [androstanediol], the “K (binding affinity constant for SHBG)” value is on record as 1300 10^6 Liter/mole.
For `CC(=O)[C@H]1CC[C@H]2[C@@H]3CCC4=CC(=O)CC[C@]4(C)[C@H]3CC[C@]12C` [progesterone], the “K (binding affinity constant for SHBG)” value was 8.8 10^6 Liter/mole.
Take `C[C@]12CC[C@H](O)CC1=CC[C@@H]1[C@@H]2CC[C@]2(C)C(=O)CC[C@@H]12` [dehydroepiandrosterone]: the “K (binding affinity constant for SHBG)” value is recorded as 66 10^6 Liter/mole.
Consider `C[C@]12CCC(=O)C=C1CC[C@@H]1[C@@H]2CC[C@]2(C)C(=O)CC[C@@H]12` [androstenedione], for which the “K (binding affinity constant for SHBG)” value was 29 10^6 Liter/mole.

For the next assay, the system named is SHBG.
Assay: not given
The conditions noted are these: known from literature (Bond et al. 1987; Miller et al. 1998); cited from earlier work.
As to `O=C1NC(=O)C(c2ccccc2)(c2ccccc2)N1` [phenytoin], the “Serum SHBG levels in women treated” value is listed as “elevated”.
`CCN(CC)CCOc1ccc(C(=C(Cl)c2ccccc2)c2ccccc2)cc1` [clomiphene]: the “Serum SHBG levels in women treated” value is reported as “elevated”.
`O=C(c1ccc(OCCN2CCCCC2)cc1)c1c(-c2ccc(O)cc2)sc2cc(O)ccc12` [raloxifene]: the “Serum SHBG levels in women treated” value is “elevated”.
Regarding `CC/C(=C(\c1ccccc1)c1ccc(OCCN(C)C)cc1)c1ccccc1` [tamoxifen], the “Serum SHBG levels in women treated” value is “elevated”.
On to `CCCC(CCC)C(=O)[O-].[Na+]` [sodium valproate], for which the “Serum SHBG levels in women treated” value is given as “elevated”.

The values above are taken from patent publication US8551516B2, “Administration of non-oral androgenic steroids to women” (Actavis, Inc., priority 1999, dated 2013).
